Experimental data published in USRE39591E1, “6-O-substituted ketolides having antibacterial activity” (Abbott Laboratories, priority 1996, dated 2007).
Converted amounts (≈) assume the structure as drawn.

Test system: up to 32 different microorganisms
Assay: in vitro antibacterial activity (MIC), agar dilution on Brain Heart Infusion (BHI) agar with Steers replicator
Format: cell-based
Conditions: unit assumed
Procedure, shortened: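 Erythromycin A served as the same-class reference for test-to-test comparability. Test compound was tested over twelve successive dilutions in BHI agar; plates were incubated 20 to 24 hours at 35°-37° C, with MIC taken as the lowest concentration showing no growth, slight haze, or sparse colonies.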

Row | SMILES | MIC (organism code AA) [µg/mL] | MIC (organism code BB) [µg/mL] | MIC (organism code CC) [µg/mL] | MIC (organism code DD) [µg/mL] | MIC (organism code EE) [µg/mL] | MIC (organism code FF) [µg/mL] | MIC (organism code GG) [µg/mL] | MIC (organism code HH) [µg/mL] | MIC (organism code II) [µg/mL] | MIC (organism code JJ) [µg/mL] | MIC (organism code KK) [µg/mL] | MIC (organism code LL) [µg/mL] | MIC (organism code MM) [µg/mL] | MIC (organism code NN) [µg/mL] | MIC (organism code OO) [µg/mL] | MIC (organism code PP) [µg/mL] | MIC (organism code QQ) [µg/mL] | MIC (organism code RR) [µg/mL] | MIC (organism code SS) [µg/mL] | MIC (organism code TT) [µg/mL] | also measured
1 | CCC1OC(=O)C(C)C(=O)C(C)C(OC2OC(C)CC(N(C)C)C2O)C(C)(OCC=Cc2ccc3ncc(-c4cccnc4)cc3c2)CC(C)C(=O)C(C)C2NC(=O)OC12C (stereo not drawn) [Example 274] | 0.1 (≈ 0.119 µM) | 0.1 (≈ 0.119 µM) | > 100 | 0.1 (≈ 0.119 µM) | 0.1 (≈ 0.119 µM) | 0.05 (≈ 0.0593 µM) | > 100 | 0.1 (≈ 0.119 µM) | 0.05 (≈ 0.0593 µM) | 0.01 (≈ 0.0119 µM) | 0.01 (≈ 0.0119 µM) | 0.01 (≈ 0.0119 µM) | 6.2 (≈ 7.35 µM) | 0.1 (≈ 0.119 µM) | 0.01 (≈ 0.0119 µM) | 0.1 (≈ 0.119 µM) | > 100 | 0.2 (≈ 0.237 µM) | > 100 | > 100 | MIC (organism code UU): 0.78 µg/mL (≈ 0.925 µM); MIC (organism code VV): 0.05 µg/mL (≈ 0.0593 µM); MIC (organism code WW): 4 µg/mL (≈ 4.74 µM); MIC (organism code XX): ≤ 0.004 µg/mL; MIC (organism code YY): ≤ 0.004 µg/mL; MIC (organism code ZZ): 8 µg/mL (≈ 9.49 µM); MIC (organism code ZZA): 0.25 µg/mL (≈ 0.297 µM)
2 | CC[C@H]1OC(=O)[C@H](C)C(=O)[C@H](C)[C@@H](O[C@@H]2O[C@H](C)C[C@H](N(C)C)[C@H]2O)[C@@](C)(OCC#Cc2cnc3ccc([N+](=O)[O-])cc3c2)C[C@@H](C)C(=O)[C@H](C)[C@H]2NC(=O)O[C@@]21C [Example 248, Compound of Formula (IX): L is CO, T is NH, R is —CH2—C≡C-(6-nitro-3-quinolyl)] | 0.05 | 0.05 | > 100 | 0.05 | 0.05 | 0.02 | > 100 | 0.05 | 0.02 | 0.02 | ≤ 0.005 | ≤ 0.005 | 0.39 | 0.1 | 0.02 | 0.1 | 50 | 0.39 | 50 | > 100 | MIC (organism code UU): 0.39 µg/mL; MIC (organism code VV): 0.02 µg/mL; MIC (organism code WW): 3 µg/mL; MIC (organism code XX): 0.03 µg/mL; MIC (organism code YY): 0.03 µg/mL; MIC (organism code ZZ): 4 µg/mL; MIC (organism code ZZA): 0.25 µg/mL
